Where two headings read alike, the source gives them in different places.
Legend:
[1] = test system: Ros pY2274 in HCC78 cells; assay: pROS1 immunofluorescence assay in HCC78 cells; assay type: cell-based; conditions: Homo sapiens, read-out: HCC78-pRos1 pIC50 (converted)
Method in brief: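 HCC78 NSCLC cells treated with compound for 4 h at 37 °C, then fixed and immunostained for ROS1 pY2274 (Alexa Fluor 680, read at 700 nm). Total ROS1 stained in parallel (IRDye800cw, 800 nm) and used to normalize phospho signal.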

[2] = target: T1, Ba/F3 cells containing Ros1 wild-type protein (Homo sapiens, UniProt P08922, cells depend on it, form not given); assay: Ba/F3-Ros1 cell proliferation assay, wild-type Ros1; assay type: cell-based, murine; conditions: without IL-3
T1 construct: The background only speaks of 'a number of different unrelated proteins' and names SLC34A2-ROS1 for HCC78 cells
Method in brief: (§1)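 Alamar Blue read-out (resazurin, ex. 540 nm, em. 590 nm, 4 h at 37 °C) after 24 h compound exposure of 20000 Ba/F3-Ros1 cells per well. Cells carry WT, gatekeeper L2026M or crizotinib-resistant G2032R Ros1; medium RPMI-1640, 10% FBS, 2 mM L-Glutamine.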

[3] = test system: HCC78 non-small cell lung cancer cells; assay: HCC78 cell proliferation assay; assay type: cell-based; conditions: Homo sapiens, HCC78, 96 h, read-out: HCC-78 PROL pEC50 (converted)
Method in brief: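 HCC78 NSCLC cells (~1000/well) in RPMI-1640 with 10% FBS were treated 24 h after seeding and exposed to compound for 4 days at 37 °C. Viability was read by MTT, with absorbance at 538 nm after DMSO/glycine solubilization.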

[4] = test system: Ba/F3 cells containing Ros1 wild-type protein + IL-3; assay: Ba/F3-Ros1 cell proliferation counter-screen, wild-type protein in the presence of 10 ng/ml murine IL-3; assay type: cell-based; conditions: Mus musculus, BaF3, 24 h, read-out: BaF3-ROS1 + IL3 pIC50 (converted)
Method in brief: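 IL-3 rescue counter-screen: WT Ros1 Ba/F3, 10 ng/ml mIL-3, 24 h compound exposure, 37 °C/5% CO2; Alamar Blue added 4 h, RFU ex540/em590.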

Ros1 enzyme = target: T2, Ros1 enzyme (Homo sapiens, UniProt P08922); assay: Ros1 enzymatic assay; assay type: biochemical; conditions: Ros1 enzymatic assay; read-out: ROS1 pIC50 (converted)
T2 construct: 0.5 μg/ml Ros1 enzyme
Method in brief: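 Radiometric proximity read-out: 33P incorporated into IRS-Tide captured on streptavidin imaging beads and imaged on LEADseeker. Phosphorylation ran 120 min at RT with 20 μM ATP (substrate-mix level) in Tris pH7.5/MgCl2/EGTA/Tween buffer; EDTA stop.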

[5] = target: Ba/F3 cells containing Ros1 with G2032R mutation (Homo sapiens, UniProt P08922, G2032R, cells depend on it, form not given); assay: Ba/F3-Ros1 cell proliferation assay, G2032R crizotinib-resistance mutant; assay type: cell-based, murine; conditions: without IL-3
Experimental: Ba/F3-Ros1 Cell Proliferation Assay
This assay was carried out with Ba/F3 cells containing three different versions of Ros1: the wild-type protein, protein with a mutation at the gatekeeper residue (L2026M), and protein with a mutation identified in a tumor from a patient that became resistant to crizotinib (Xalkori®) treatment (G2032R). Compounds were solubilized in 100% DMSO (dimethyl sulfoxide) and sprayed into polystyrene, tissue culture treated 384-well plates. A 50 μl volume of cell culture medium (phenol red free RPMI-1640, 10% FBS (fetal bovine serum), 2 mM L-Glutamine) containing 20000 Ba/F3-Ros1 cells was added to each well and the plates were placed in an incubator at 37° C. and 5% CO2. After 24 hours, 10 μl of Alamar Blue solution (0.5 mM K3Fe(CN)6, 0.5 mM K4Fe(CN)6, 0.15 mM Resazurin and 100 mM Phosphate Buffer) was added to the wells, incubated for 4 hours at 37° C. and 5% CO2 before RFU's (Relative Fluorescence Units) (ex. 540 nm., em. 590 nm.) were measured in a fluorescence plate reader.

[6] = target: Ba/F3 cells containing Ros1 with a mutation at the gatekeeper residue (L2026M) (Homo sapiens, UniProt P08922, L2026M, cells depend on it, form not given); assay: Ba/F3-Ros1 cell proliferation assay, L2026M gatekeeper mutant; assay type: cell-based, murine; conditions: without IL-3
Method in brief: as §1

[7] = HCC78 cells, 4 hours, Ros pY2274 normalized to total Ros1
[8] = counter-screen, wild-type, 10 ng/ml murine IL-3

T2 sequence (P08922 28-2347): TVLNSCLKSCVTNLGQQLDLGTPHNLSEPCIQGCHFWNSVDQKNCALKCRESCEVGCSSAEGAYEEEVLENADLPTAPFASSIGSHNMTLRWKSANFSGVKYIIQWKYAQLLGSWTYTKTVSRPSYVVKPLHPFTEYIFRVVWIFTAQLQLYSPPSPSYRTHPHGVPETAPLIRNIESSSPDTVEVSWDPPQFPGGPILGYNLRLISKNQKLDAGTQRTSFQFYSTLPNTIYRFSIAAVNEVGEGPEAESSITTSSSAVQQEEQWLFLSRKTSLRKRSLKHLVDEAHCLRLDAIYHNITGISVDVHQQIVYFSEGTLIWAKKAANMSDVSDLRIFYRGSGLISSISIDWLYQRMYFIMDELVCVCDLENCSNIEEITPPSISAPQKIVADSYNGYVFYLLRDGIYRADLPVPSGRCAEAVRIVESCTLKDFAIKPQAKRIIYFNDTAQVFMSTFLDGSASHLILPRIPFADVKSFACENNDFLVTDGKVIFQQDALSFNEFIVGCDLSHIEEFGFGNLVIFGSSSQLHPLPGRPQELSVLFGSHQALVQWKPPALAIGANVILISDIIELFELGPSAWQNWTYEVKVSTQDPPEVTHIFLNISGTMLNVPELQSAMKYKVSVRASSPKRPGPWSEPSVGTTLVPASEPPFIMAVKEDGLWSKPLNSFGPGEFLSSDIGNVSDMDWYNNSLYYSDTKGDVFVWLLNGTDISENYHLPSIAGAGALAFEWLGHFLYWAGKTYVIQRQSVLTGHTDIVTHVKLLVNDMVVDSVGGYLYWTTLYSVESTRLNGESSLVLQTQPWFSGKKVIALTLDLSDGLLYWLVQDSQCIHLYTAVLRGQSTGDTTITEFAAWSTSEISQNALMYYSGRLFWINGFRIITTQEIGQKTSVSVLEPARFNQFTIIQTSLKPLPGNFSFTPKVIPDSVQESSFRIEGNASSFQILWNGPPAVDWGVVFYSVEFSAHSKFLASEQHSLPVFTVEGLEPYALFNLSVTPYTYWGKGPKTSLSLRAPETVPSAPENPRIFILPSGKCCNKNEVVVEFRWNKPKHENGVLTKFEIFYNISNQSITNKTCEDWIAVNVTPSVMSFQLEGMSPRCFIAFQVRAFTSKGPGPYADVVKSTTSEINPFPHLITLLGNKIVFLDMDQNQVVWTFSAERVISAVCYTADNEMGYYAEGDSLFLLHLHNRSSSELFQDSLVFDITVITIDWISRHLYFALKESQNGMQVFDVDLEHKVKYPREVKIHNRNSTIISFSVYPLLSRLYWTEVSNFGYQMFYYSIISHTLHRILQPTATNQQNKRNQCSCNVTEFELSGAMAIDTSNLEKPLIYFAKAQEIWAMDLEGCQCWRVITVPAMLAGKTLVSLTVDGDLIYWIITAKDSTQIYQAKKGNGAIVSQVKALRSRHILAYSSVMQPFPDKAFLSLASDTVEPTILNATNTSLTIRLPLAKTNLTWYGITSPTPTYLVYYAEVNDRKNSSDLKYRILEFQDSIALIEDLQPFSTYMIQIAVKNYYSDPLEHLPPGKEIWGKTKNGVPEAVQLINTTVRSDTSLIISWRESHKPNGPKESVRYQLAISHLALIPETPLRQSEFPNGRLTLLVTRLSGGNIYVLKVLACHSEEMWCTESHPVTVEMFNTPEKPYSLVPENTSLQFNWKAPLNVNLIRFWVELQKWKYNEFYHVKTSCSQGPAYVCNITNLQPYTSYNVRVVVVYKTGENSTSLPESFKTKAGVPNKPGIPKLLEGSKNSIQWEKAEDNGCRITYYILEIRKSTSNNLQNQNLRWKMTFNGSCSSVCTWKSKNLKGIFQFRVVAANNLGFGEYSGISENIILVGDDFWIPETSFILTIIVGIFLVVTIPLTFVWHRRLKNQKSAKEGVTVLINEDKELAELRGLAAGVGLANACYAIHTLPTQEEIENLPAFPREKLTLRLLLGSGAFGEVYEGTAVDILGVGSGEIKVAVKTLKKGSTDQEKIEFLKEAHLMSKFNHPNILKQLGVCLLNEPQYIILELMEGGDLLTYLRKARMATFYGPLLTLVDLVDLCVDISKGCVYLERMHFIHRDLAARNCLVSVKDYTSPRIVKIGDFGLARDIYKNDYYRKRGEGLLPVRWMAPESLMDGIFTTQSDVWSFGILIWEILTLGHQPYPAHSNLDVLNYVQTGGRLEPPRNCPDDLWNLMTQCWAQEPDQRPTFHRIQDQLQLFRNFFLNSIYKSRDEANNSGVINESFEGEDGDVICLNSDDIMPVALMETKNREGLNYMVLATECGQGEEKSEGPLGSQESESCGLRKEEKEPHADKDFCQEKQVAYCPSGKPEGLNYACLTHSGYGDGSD
Chain of Ba/F3 cells containing Ros1 with a mutation at the gatekeeper residue (L2026M) (P08922 whole entry L2026M, form open): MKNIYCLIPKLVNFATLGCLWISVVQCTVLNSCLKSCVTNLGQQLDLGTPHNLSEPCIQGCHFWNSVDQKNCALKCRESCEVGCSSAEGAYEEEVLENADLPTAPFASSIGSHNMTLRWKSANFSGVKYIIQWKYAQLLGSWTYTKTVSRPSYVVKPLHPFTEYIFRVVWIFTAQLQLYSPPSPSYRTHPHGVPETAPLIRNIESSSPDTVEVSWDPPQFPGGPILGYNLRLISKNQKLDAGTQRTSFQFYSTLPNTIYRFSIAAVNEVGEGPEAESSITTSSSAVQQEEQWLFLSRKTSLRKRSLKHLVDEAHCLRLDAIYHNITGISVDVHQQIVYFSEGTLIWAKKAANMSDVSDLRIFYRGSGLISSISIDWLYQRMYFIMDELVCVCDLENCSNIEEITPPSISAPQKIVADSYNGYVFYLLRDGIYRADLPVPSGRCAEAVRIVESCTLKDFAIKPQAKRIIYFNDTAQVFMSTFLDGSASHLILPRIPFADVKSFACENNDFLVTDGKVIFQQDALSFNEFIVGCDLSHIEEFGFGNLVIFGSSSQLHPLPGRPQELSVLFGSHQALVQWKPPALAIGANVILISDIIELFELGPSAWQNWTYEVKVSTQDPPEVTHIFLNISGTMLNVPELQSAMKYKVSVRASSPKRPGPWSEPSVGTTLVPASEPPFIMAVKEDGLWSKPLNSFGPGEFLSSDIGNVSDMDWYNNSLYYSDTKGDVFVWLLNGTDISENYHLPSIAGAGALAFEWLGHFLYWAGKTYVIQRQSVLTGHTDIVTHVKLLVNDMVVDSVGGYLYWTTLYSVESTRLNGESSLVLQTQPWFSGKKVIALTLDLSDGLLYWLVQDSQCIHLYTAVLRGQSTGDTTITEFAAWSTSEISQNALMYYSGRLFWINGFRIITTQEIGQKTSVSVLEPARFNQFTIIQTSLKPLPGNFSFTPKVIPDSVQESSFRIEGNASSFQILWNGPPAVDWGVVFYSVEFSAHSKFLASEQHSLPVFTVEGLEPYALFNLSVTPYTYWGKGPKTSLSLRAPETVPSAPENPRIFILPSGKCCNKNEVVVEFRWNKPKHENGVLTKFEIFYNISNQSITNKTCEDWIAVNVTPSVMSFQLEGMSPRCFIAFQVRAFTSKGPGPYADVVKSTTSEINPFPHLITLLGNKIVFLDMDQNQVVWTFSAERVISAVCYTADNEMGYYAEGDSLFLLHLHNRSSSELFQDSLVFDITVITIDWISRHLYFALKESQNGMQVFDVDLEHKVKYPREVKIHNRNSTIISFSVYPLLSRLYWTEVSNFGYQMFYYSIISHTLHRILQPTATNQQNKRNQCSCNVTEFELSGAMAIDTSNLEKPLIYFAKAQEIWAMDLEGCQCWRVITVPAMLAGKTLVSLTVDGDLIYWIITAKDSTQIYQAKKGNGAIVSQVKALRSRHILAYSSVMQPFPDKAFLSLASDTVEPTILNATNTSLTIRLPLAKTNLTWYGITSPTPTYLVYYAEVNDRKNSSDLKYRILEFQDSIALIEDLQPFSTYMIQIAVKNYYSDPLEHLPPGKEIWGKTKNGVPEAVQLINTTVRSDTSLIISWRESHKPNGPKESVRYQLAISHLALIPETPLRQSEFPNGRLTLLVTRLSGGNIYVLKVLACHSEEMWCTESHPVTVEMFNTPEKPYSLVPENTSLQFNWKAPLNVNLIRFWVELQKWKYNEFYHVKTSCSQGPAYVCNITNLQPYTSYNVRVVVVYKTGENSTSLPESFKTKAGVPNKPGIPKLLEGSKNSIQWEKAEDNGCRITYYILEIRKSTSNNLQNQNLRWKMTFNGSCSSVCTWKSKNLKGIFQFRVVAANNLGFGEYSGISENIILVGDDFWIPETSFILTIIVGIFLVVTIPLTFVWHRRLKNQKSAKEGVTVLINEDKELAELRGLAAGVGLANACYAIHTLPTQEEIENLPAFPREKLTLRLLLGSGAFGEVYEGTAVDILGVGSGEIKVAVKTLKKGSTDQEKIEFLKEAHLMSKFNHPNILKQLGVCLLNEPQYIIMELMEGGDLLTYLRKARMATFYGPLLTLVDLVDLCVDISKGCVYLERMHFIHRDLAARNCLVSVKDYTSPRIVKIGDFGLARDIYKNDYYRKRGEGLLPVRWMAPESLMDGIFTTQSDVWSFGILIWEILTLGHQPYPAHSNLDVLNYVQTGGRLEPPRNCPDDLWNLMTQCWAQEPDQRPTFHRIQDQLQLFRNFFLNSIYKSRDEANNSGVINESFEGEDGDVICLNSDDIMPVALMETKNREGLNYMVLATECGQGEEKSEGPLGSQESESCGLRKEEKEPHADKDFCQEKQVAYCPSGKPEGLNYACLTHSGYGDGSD
T1 sequence (P08922 whole entry, stated change not applied): as the sequence (P08922 whole entry L2026M, form open) above, with M2026L counted along it
Chain of Ba/F3 cells containing Ros1 with G2032R mutation (P08922 whole entry G2032R, form open): as the sequence (P08922 whole entry L2026M, form open) above, with M2026L, G2032R counted along it

SMILES	IC50 ([1]; HCC78, 4 h) [µM]	BaF3-ROS1-IL3 pIC50 [2]	EC50 [3] [µM]	CC50 [4] [µM]	IC50 (Ros1 enzyme) [µM]	Ba/3 Ros1 G2032R (-IL-3) pIC50 [5]	Ba/F3 Ros1 L2026M (-IL-3) pIC50 [6]	melting point [°C]	IC50 [1, 7] [µM]	EC50 ([3]; HCC78 cells, 4 days, MTT) [µM]	CC50 [4, 8] [µM]
CC(C)c1ccc(COc2ccc(-c3c(-c4ccncn4)nn4c3C(=O)NCC4)cc2)cc1 [Compound 158]	0.126	7.4	0.316	> 10	0.0501	6.5	7.4				
CC(C)c1ccc(COc2ccc(-c3c(-c4ccnc(N)c4)nn4c3C(=O)NCC4)cc2)cc1 [Compound 7]	0.1	7.4	0.251	> 10	0.0398	6.8	7.4	267			
c1cc(-c2nn3c(c2-c2ccc(OCc4ccc(C5CC5)cc4)cc2)CNCC3)ccn1 [Compound 172]		6.4			0.631	5.2	6.3		0.316	3.98	> 10
O=C1NCCn2nc(-c3ccncc3)c(-c3ccc(OCc4ccc(C5CC5)cc4)cc3)c21 [Compound 4]	0.0794	7.6	0.2	> 10	0.0398	6.8	7.4	262			
O=C1NC2(CNC2)Cn2nc(-c3ccncc3)c(-c3ccc(OCc4ccc(C5CC5)cc4)cc3)c21 [Compound 183]		6.0			0.2	5.6		173	0.398	1.58	> 10
CNC(=O)CN1CCn2nc(-c3ccncc3)c(-c3ccc(OCc4ccc(C(C)C)cc4)cc3)c2C1 [Compound 174]		6.8			0.2	6.4	6.8	185	0.251	0.794	> 10
CC(C)c1ccc(COc2ccc(-c3c(-c4ccncc4)nn4c3C(=O)N(C(C)C)CC4)cc2)cc1 [Compound 49]	0.0316	7.3	0.1	> 10	0.0398	6.9	7.2	168			
O=C1NCCn2nc(-c3ccncc3)c(-c3ccc(OCc4ccc(OC(F)(F)F)cc4)cc3)c21 [Compound 116]	0.158	7.3	0.251	> 10	0.126	6.6	7.3	260			
COc1ccc(COc2ccc(-c3c(-c4ccncc4)nn4c3C(=O)NCC4)cc2)cc1 [Compound 112]		6.8			0.158	5.8		260	0.316	1	> 10
CC(C)c1ccc(COc2ccc(-c3c(-c4ccncc4)nn4c3C(=O)N(CCO)CC4)c(F)c2)cc1 [Compound 21]		7.8	0.0398	> 10	0.01	7.4	7.6	141			
CN1CCn2nc(-c3ccncc3)c(-c3ccc(OCc4ccc(C5CC5)nc4)cc3)c2C1=O [Compound 138]		6.9			0.1	6.0	6.8	175	0.316	0.501	> 10
CC(C)c1ccc(COc2ccc(-c3c(-c4ccncc4)nn4c3C(=O)N(CCOCCO)CC4)cc2)cc1 [Compound 53]		7.4			0.0398	7.0	6.9	121		0.1	> 10
CC(C)c1ccc(COc2ccc(-c3c(-c4ccncc4)nn4c3C(=O)N(CCO)CC4)cc2F)cc1 [Compound 19]		8.2	< 0.0316	> 10	0.0126	7.5	8.0	172			
CC(C)c1cc(F)c(COc2ccc(-c3c(-c4ccncc4)nn4c3C(=O)N(CCO)CC4)cc2)cc1F [Compound 97]		6.9	3.16	> 10	0.158	<5	6.3	147			
CNC(=O)CN1CCn2nc(-c3ccncc3)c(-c3ccc(OCc4ccc(C(C)C)cc4)cc3)c2C1=O [Compound 63]		7.1	0.398	> 10	0.1	6.7	7.3	161			
c1cc(-c2nn3c(c2-c2ccc(OCc4ccc(C5CC5)cc4)cc2)CNC2(CC2)C3)ccn1 [Compound 171]		6.2			0.398	6.0		152	0.501	1.58	> 10

Source: patent US10280170B2, “Substituted 4,5,6,7-tetrahydro-pyrazolo[1,5-a]pyrazine derivatives and 5,6,7,8-tetrahydro-4H-pyrazolo[1,5-a][1,4]diazepine derivatives as Ros1 inhibitors” (Janssen Pharmaceutica NV, priority 2014, dated 2019)
